From US20140045908A1, “HSP90 INHIBITORY COMPOUNDS IN TREATING JAK/STAT SIGNALING-MEDIATED CANCERS” (SYNTA PHARMACEUTICALS CORP., priority 2011, published 2014)

Assays:
[1] = tested on: Cdk1, phospho-Chk2, cyclins in HEL92.1.7 cells; test: Western blot of cell cycle proteins in HEL92.1.7 cells; format: cell-based, human
Procedure: Cells were harvested at the indicated time points and the levels of total and phospho-Cdk1, phospho-Chk2 and GAPDH analyzed by western blot.
FIG. 12 illustrates the effects of ganetespib on JAK/STAT and cell cycle protein expression. HEL92.1.7 cells were treated with 100 nM ganetespib and subject to western blot to determine the levels of Cdk1, cyclin B1, cyclin A1, JAK2, total and phospho-STAT3, and GAPDH at hourly intervals over an 11 h time course.
(§1) Cells were disrupted in lysis buffer (CST) and solubilized in 2% SDS. Xenograft tumors (average volume of 100-200 mm3) were excised, cut in half, and flash frozen in liquid nitrogen. Each tumor fragment was lysed in 0.5 mL of lysis buffer using a FastPrep-24 homogenizer and Lysing Matrix A (MP Biomedicals, Solon, Ohio, USA) and lysates clarified by centrifugation. Equal amounts of proteins were resolved by SDS-PAGE and immunoblotted with indicated antibodies. The antigen-antibody complex was visualized and quantitated using an Odyssey system (LI-COR, Lincoln, Nebr., USA).

[2] = tested on: phospho-STAT5 and Cdk1 in MV4-11 tumors; test: Pharmacodynamic analysis of MV4-11 xenograft tumors (western blot); format: in vivo, SCID mice
Procedure: SCID mice bearing MV4-11 tumors (n=4 mice/group) were treated with vehicle or ganetespib at either 25 mg/kg or 150 mg/kg at the indicated time points between 6 h and 144 h (6 days). Tumors were resected and the levels of p-STATS, Cdk1, Hsp70 and GAPDH were determined by western blot.
as §1
To determine whether these tumor responses correlated with target modulation in vivo, additional mice bearing MV4-11 xenografts were treated with a single dose of vehicle alone or ganetespib at 25 or 150 mg/kg. Tumors were harvested between 6 and 144 hours later and pharmacodynamic analysis was performed by examining the expression levels of phospho-STAT5, Cdk1 and Hsp70 (FIG. 17). In accord with the in vivo tumor growth data, dose-dependent effects on the duration of target inhibition within the tumors were observed. […] While the relatively quick recovery of STAT5 activation should have allowed the tumor to restart growth, the more durable suppression of the cell cycle regulators appeared to have kept the growth of the tumors arrested until the next drug dosing.

[3] = tested on: SET-2, HEL92.1.7, MV4-11, NCI-H1975 and DU145 cells; test: Cell viability assay (AlamarBlue, 72 h), group of JAK/STAT-dependent tumor cell lines; format: cell-based, human
Procedure: SET-2, HEL92.1.7, MV4-11, NCI-H1975 and DU145 cells were treated with ganetespib or 17-AAG over a broad dose range (0.0001 to 1 μM) for 72 h and cell viability assessed by Alamar blue staining.
All cell lines were obtained from the ATCC (Rockville, Md., USA), with the exception of SET-2 cells which were purchased from the German Collection of Microorganisms and Cell Cultures (DSMZ, Germany). Cells were maintained and cultured according to standard techniques at 37° C. in 5% (v/v) CO2 using culture medium recommended by the supplier.
Cells were grown in 96-well plates based on optimal growth rates determined empirically for each line. Twenty-four hours after plating, cells were dosed with the indicated compound or DMSO (0.3%) for 72 h. AlamarBlue (Invitrogen, Carlsbad, Calif., USA) was added (10% v/v) to the cells, and the plates were incubated for 3 h and subjected to fluorescence detection (Ex=545 nm, Em=600 nm) in a SpectraMax Plus 384 microplate reader (Molecular Devices, Sunnyvale, Calif., USA). Data are normalized to percent of control, with IC50 values based on a four-parameter logistic dose response curve (model 205) using XLfit version 5.1 from IDBS (Guildford, U.K.).

[4] = tested on: JAK2/STAT signaling in NCI-H1975 cells; test: Western blot of JAK/STAT and Hsp90 client proteins in NCI-H1975 cells; format: cell-based, human; conditions: 24 h
Procedure: NCI-H1975 cells were dosed with the indicated concentrations of ganetespib for 24 h and their cell lysates analyzed to determine JAK/STAT and Hsp90 client protein levels using the antibodies indicated.
as §1

[5] = Tolerability studies in non-tumor bearing mice; format: in vivo; conditions: i.v.
Procedure: For both models, studies were conducted at the highest non-severely toxic doses (NHSTDs) of 150 mg/kg ganetespib one-time per week or 25 mg/kg ganetespib 5×/week for 3 weeks based on prior tolerability studies conducted in non-tumor bearing mice.

[6] = tested on: JAK2 dependent signaling in HEL92.1.7 cells; test: Western blot of JAK/STAT signaling in HEL92.1.7 cells; format: cell-based, human
Procedure: FIG. 2 compares the more durable ganetespib durable inhibition of JAK/STAT signaling to P6. HEL92.1.7 cells were cultured in the presence of 250 nM Ganetespib or 1000 nM P6 and harvested at the indicated time points. The levels of JAK2, phosphorylated and total STAT3 and STAT5, phospho-AKT, phospho-ERK and GAPDH were determined by western blot.
as §1

CC(C)c1cc(-c2nnc(O)n2-c2ccc3c(ccn3C)c2)c(O)cc1O [ganetespib, 3-(2,4-dihydroxy-5-isopropyl-phenyl)-4-(1-methyl-indol-5-yl)-5-hydroxy-[1,2,4] triazole]
level of phospho-Chk2 [1]: reduced | cyclins A1 and B1 levels ([1]; 100 nM, 11 h time course): temporal accumulation of cyclins A1 and B1 | Cdk1 protein expression ([1]; ganetespib 250 nM or P6 1000 nM, 24-48 h): Reduced protein levels | time by which STAT5 activity recovered in tumors ([2]; single 25 mg/kg dose): ≤ 24 h | time of loss of Cdk1 in tumors ([2]; single 25 mg/kg dose): 24 h | time through which Cdk1 expression remained suppressed in tumors ([2]; single 25 mg/kg dose): at least 48 hours | time to potent inhibition of STAT5 activity in tumors ([2]; single 25 mg/kg dose): ≤ 6 h | duration of repressed STAT5 activation and suppressed Cdk1 expression in tumors ([2]; single 150 mg/kg dose): more than three days | potency compared with 17-AAG, cell viability ([3]; each of the lines tested): more potent than the ansamycin Hsp90 inhibitor 17-AAG | potency in reducing cellular viability ([3]; group of human hematological and solid tumor cell lines, 72 h): low nanomolar potency | AKT and GSK3β activity [4]: Inactivation of AKT and GSK3β | EGFR expression [4]: dose dependent decrease in EGFR expression | JAK2 and phosphorylated STAT3 levels [4]: potent degradation of JAK2 and loss of phosphorylated STAT3 in a dose-dependent manner | levels of phosphorylated BAD [4]: concomitant reduction in the levels of phosphorylated BAD | highest non-severely toxic dose ([5]; 5×/week for 3 weeks): 25 mg/kg | highest non-severely toxic dose ([5]; one-time per week for 3 weeks): 150 mg/kg | JAK2 and phospho-AKT protein levels [6]: targeted loss of JAK2 and phospho-AKT protein levels | duration of STAT signaling suppression compared to P6 [6]: suppressed STAT signaling longer | potency compared to P6, JAK/STAT inhibitory activity [6]: at least four-fold more potent | JAK2 dependent signaling (phospho-STAT3, phospho-STAT5, ERK signaling) ([6]; 250 nM ganetespib or 1000 nM P6): blocked JAK2 dependent signaling
